For experiment [1], the target named is T1, Adenosine receptor A3 (Homo sapiens, UniProt P0DMS8).
T1 sequence (P0DMS8 whole entry): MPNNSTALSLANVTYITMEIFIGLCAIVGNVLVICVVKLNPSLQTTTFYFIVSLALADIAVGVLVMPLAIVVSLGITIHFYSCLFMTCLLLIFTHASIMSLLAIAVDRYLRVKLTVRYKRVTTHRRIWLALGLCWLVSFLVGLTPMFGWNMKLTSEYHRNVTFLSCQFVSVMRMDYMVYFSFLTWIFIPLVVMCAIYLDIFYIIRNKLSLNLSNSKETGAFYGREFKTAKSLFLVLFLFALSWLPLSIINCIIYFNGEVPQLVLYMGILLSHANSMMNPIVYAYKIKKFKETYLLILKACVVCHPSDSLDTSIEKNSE
In kind it is cell-based, CHO.

The target of experiment [2] is T1, Adenosine receptor A3. In words: Binding affinity to human adenosine A3 receptor expressed in CHO cells after 90 mins. The experiment is classed as cell-based.
Experiment [3] concerns the target T1, Adenosine receptor A3. In words: Binding affinity to human adenosine A3 receptor expressed in CHO cells by flow cytometric analysis. The experiment is classed as cell-based.
Experiment [4] concerns the target T2, Adenosine receptor A2a (Homo sapiens, UniProt P29274). In words: Displacement of [3H]CGS21680 from human adenosine A2A receptor expressed in HEK293 cells after 60 mins by […] analysis. In kind it is cell-based.
Another experiment concerns the target T3, Adenosine receptor A1 (Homo sapiens, UniProt P30542).
T3 sequence (P30542 whole entry): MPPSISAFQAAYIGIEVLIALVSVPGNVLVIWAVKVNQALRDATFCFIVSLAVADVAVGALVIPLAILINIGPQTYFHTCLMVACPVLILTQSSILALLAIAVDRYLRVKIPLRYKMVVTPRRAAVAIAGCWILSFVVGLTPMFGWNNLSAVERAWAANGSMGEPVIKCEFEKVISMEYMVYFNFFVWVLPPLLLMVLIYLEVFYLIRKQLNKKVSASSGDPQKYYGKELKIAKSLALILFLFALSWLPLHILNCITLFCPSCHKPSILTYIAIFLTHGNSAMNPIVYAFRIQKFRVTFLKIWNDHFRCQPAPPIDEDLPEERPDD
In words: Displacement of [3H]R-PIA from human adenosine A1 receptor expressed in CHO cells after 60 mins by […] analysis. The experiment is classed as cell-based.

In another experiment the target is Uncharacterized protein (Bos taurus, UniProt E1BKU0). Put plainly: Displacement of [3H]CGS21680 from adenosine A2A receptor in bovine striatal membranes after 90 mins by liquid scintillation counting analysis. The experiment is classed as cell membranes, Striatum, Membrane.
Sequence of Uncharacterized protein (E1BKU0 whole entry): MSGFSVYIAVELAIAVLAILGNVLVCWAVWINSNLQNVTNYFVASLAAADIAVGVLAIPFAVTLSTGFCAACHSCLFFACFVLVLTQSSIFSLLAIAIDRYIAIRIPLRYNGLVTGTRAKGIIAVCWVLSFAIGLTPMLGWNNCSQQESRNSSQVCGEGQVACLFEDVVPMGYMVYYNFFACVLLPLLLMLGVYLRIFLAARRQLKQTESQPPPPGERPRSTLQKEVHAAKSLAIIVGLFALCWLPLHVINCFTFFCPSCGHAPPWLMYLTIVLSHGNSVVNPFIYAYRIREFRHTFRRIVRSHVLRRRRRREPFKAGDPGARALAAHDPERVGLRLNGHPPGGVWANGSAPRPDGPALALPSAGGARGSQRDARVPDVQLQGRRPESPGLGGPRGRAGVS
The target of experiment [5] is T2, Adenosine receptor A2a. In words: Competitive binding affinity to human adenosine A2A receptor expressed in HEK293 cells after 60 mins by fluorescence polarization assay in presence of MRS5346.

Molecules are shown by their SMILES.

T2 sequence (P29274 whole entry): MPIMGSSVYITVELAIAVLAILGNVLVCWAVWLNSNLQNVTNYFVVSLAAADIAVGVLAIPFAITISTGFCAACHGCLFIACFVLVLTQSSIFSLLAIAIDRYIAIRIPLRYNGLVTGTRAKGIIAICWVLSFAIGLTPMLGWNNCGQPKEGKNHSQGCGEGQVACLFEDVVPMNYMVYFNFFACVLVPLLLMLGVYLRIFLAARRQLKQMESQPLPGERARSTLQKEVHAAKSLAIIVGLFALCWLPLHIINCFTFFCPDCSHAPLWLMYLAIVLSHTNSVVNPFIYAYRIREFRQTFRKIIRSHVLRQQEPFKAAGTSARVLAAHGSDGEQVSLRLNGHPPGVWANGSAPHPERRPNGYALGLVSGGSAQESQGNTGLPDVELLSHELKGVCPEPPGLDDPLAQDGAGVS

On to `N=c1ccc2c(-c3ccc(C(=O)NCCCCCCn4cc(CCCC(=O)Nc5nc6ccc(Cl)cc6c6nc(-c7ccco7)nn56)nn4)cc3C(=O)O)c3ccc(N)c(S(=O)(=O)O)c3oc-2c1S(=O)(=O)O`, for which the Ki was 6.46 nM on Adenosine receptor A3 [1], 74.1 nM at Adenosine receptor A2a [4] and 87.1 nM on Adenosine receptor A1. The values for the Kd on Adenosine receptor A3 [2] and on Adenosine receptor A3 [3] were 6.65 nM and 5.15 nM, respectively.

`CCNC(=O)[C@H]1O[C@@H](n2cnc3c(N)nc(NCCc4ccc(CCC(=O)NCCNC(=S)Nc5ccc(C6c7ccc(O)cc7OC7=CC(=O)C=CC76)c(C(=O)O)c5)cc4)nc32)[C@H](O)[C@@H]1O` (some centres not stated): the affinity on Uncharacterized protein corresponds to a Ki of 11.2 nM.

For the compound `OC[C@H]1O[C@@H](n2cnc3c(NC4CCCC4)ncnc32)[C@H](O)[C@@H]1O` [N6-CYCLOPENTYLADENOSINE], the Ki at Adenosine receptor A2a [5] amounted to 814 nM.

The record behind these values is ChEMBL document CHEMBL2412992, “Fluorescent ligands for adenosine receptors” (Bioorg Med Chem Lett, 2013).
